Experimental data taken from patent US20230263822A1, “MODULATION OF FACTOR 11 EXPRESSION” (Ionis Pharmaceuticals, Inc., priority 2008, published 2023).

Assay: Hematology assays in cynomolgus monkeys (Example 45)
Type: in vivo
Conditions: for MCH / MCHC / MCV / RBC count / WBC count / hematocrit / hemoglobin: escalating dose regimen
Method: Groups, each consisting of two male and three female monkeys, were injected subcutaneously with ISIS 416838, ISIS 416850, ISIS 416858, ISIS 416864, or ISIS 417002 in escalating doses. Antisense oligonucleotide was administered to the monkeys at 5 mg/kg three times per a week for week 1; 5 mg/kg twice per week for weeks 2 and 3; 10 mg/kg three times per week for week 4; 10 mg/kg twice per week for weeks 5 and 6; 25 mg/kg three times per week for week 7; and 25 mg/kg twice per week for weeks 8, 9, 10, 11, and 12. One control group, consisting of two male and three female monkeys, was injected subcutaneously with PBS according to the same dosing regimen. An additional experimental group, consisting of two male and three female monkeys, was injected subcutaneously with ISIS 416850 in a chronic, lower dose regimen. Antisense oligonucleotide was administered to the monkeys at 5 mg/kg three times per week for week 1; 5 mg/kg twice per week for week 2 and 3; 10 mg/kg three times per week for week 4; and 10 mg/kg twice per week for weeks 5 to 12. Body weights were measured weekly. Blood samples were collected 14 days and 5 days before the start of treatment and subsequently once per week for Factor 11 protein activity analysis in plasma, fibrinogen measurement, PT and aPTT measurements, bleeding times, and measurement of various hematologic factors. On day 85, the monkeys were euthanized by exsanguination while under deep anesthesia, and organs harvested for further analysis.
The ISIS oligonucleotide, ISIS 416850, given with the chronic dose regimen is distinguished from the other oligonucleotides with an asterisk (*).

ISIS 416838: MOE gapmer, nucleobases 1018 to 1042 of SEQ ID NO: 1 (Table 6) (antisense GCAACCGGGATGATGAGTGC; MOE gapmer, wing and gap sizes not given here)
MCH (Day 64): 23 pg | MCH (Day 71): 23 pg | MCH (Day 78): 23 pg | MCH (Day 85): 23 pg | basophils (day 8): 0.2% | eosinophils (day 8): 0.4% | lymphocytes (day 8): 54% | monocytes (day 8): 2.5% | neutrophils (day 8): 42% | platelet count (day 8): 387000 µL⁻¹ | reticulocytes (day 8): 1.2% | MCH (day 8): 23 pg | MCHC (day 8): 30 g/dL | MCV (day 8): 77 fL | RBC count (day 8): 5.7e+06 µL⁻¹ | WBC count (day 8): 10000 µL⁻¹ | hematocrit (day 8): 43% | hemoglobin (day 8): 12.9 g/dL | basophils (day 15): 0.3% | eosinophils (day 15): 0.3% | lymphocytes (day 15): 53% | monocytes (day 15): 2.4% | neutrophils (day 15): 43% | platelet count (day 15): 387000 µL⁻¹ | reticulocytes (day 15): 1.2% | MCH (day 15): 23 pg | MCHC (day 15): 31 g/dL | MCV (day 15): 75 fL | RBC count (day 15): 5.6e+06 µL⁻¹ | WBC count (day 15): 10000 µL⁻¹ | hematocrit (day 15): 42% | hemoglobin (day 15): 12.9 g/dL | basophils (day 22): 0.2% | eosinophils (day 22): 0.5% | lymphocytes (day 22): 59% | monocytes (day 22): 2.9% | neutrophils (day 22): 37% | platelet count (day 22): 319000 µL⁻¹ | reticulocytes (day 22): 1.2% | MCH (day 22): 23 pg | MCHC (day 22): 29 g/dL | MCV (day 22): 80 fL | RBC count (day 22): 5.4e+06 µL⁻¹ | WBC count (day 22): 11000 µL⁻¹ | hematocrit (day 22): 43% | hemoglobin (day 22): 12.5 g/dL | basophils (day 29): 0.2% | eosinophils (day 29): 0.3% | lymphocytes (day 29): 59% | monocytes (day 29): 3.2% | neutrophils (day 29): 36% | platelet count (day 29): 337000 µL⁻¹ | reticulocytes (day 29): 1.6% | MCH (day 29): 23 pg | MCHC (day 29): 29 g/dL | MCV (day 29): 81 fL | RBC count (day 29): 5.3e+06 µL⁻¹ | WBC count (day 29): 11000 µL⁻¹ | hematocrit (day 29): 43% | hemoglobin (day 29): 12.4 g/dL | basophils (day 36): 0.4% | eosinophils (day 36): 0.5% | lymphocytes (day 36): 57% | monocytes (day 36): 2.5% | neutrophils (day 36): 39% | platelet count (day 36): 370000 µL⁻¹ | reticulocytes (day 36): 1.6% | MCH (day 36): 23 pg | MCHC (day 36): 30 g/dL | MCV (day 36): 78 fL | RBC count (day 36): 5.5e+06 µL⁻¹ | WBC count (day 36): 10000 µL⁻¹ | hematocrit (day 36): 43% | hemoglobin (day 36): 12.8 g/dL | basophils (day 43): 0.4% | eosinophils (day 43): 0.6% | lymphocytes (day 43): 65% | monocytes (day 43): 3.3% | neutrophils (day 43): 30% | platelet count (day 43): 365000 µL⁻¹ | reticulocytes (day 43): 1.2% | MCH (day 43): 23 pg | MCHC (day 43): 30 g/dL | MCV (day 43): 78 fL | RBC count (day 43): 5.6e+06 µL⁻¹ | WBC count (day 43): 10000 µL⁻¹ | hematocrit (day 43): 43% | hemoglobin (day 43): 12.7 g/dL | basophils (day 50): 0.3% | eosinophils (day 50): 0.8% | lymphocytes (day 50): 64% | monocytes (day 50): 3.2% | neutrophils (day 50): 31% | platelet count (day 50): 372000 µL⁻¹ | reticulocytes (day 50): 1.6% | MCH (day 50): 23 pg | MCHC (day 50): 28 g/dL | MCV (day 50): 80 fL | RBC count (day 50): 5.5e+06 µL⁻¹ | WBC count (day 50): 11000 µL⁻¹ | hematocrit (day 50): 44% | hemoglobin (day 50): 12.3 g/dL | basophils (day 57): 0.3% | eosinophils (day 57): 0.6% | lymphocytes (day 57): 63% | monocytes (day 57): 3.2% | neutrophils (day 57): 32% | platelet count (day 57): 371000 µL⁻¹ | reticulocytes (day 57): 1.5% | MCH (day 57): 23 pg | MCHC (day 57): 29 g/dL | MCV (day 57): 79 fL | RBC count (day 57): 5.5e+06 µL⁻¹ | WBC count (day 57): 12000 µL⁻¹ | hematocrit (day 57): 43% | hemoglobin (day 57): 12.6 g/dL | basophils (day 64): 0.4% | eosinophils (day 64): 0.7% | lymphocytes (day 64): 64% | monocytes (day 64): 3.5% | neutrophils (day 64): 30% | platelet count (day 64): 358000 µL⁻¹ | reticulocytes (day 64): 1.3% | MCHC (day 64): 29 g/dL | MCV (day 64): 79 fL | RBC count (day 64): 5.6e+06 µL⁻¹ | WBC count (day 64): 13000 µL⁻¹ | hematocrit (day 64): 44% | hemoglobin (day 64): 12.6 g/dL | basophils (day 71): 0.5% | eosinophils (day 71): 0.8% | lymphocytes (day 71): 65% | monocytes (day 71): 4.3% | neutrophils (day 71): 28% | platelet count (day 71): 365000 µL⁻¹ | reticulocytes (day 71): 1.3% | MCHC (day 71): 29 g/dL | MCV (day 71): 80 fL | RBC count (day 71): 5.5e+06 µL⁻¹ | WBC count (day 71): 15000 µL⁻¹ | hematocrit (day 71): 44% | hemoglobin (day 71): 12.7 g/dL | basophils (day 78): 0.4% | eosinophils (day 78): 0.9% | lymphocytes (day 78): 60% | monocytes (day 78): 3.6% | neutrophils (day 78): 35% | platelet count (day 78): 348000 µL⁻¹ | reticulocytes (day 78): 1.4% | MCHC (day 78): 30 g/dL | MCV (day 78): 76 fL | RBC count (day 78): 5.4e+06 µL⁻¹ | WBC count (day 78): 11000 µL⁻¹ | hematocrit (day 78): 41% | hemoglobin (day 78): 12.5 g/dL | basophils (day 85): 0.3% | eosinophils (day 85): 1.5% | lymphocytes (day 85): 72% | monocytes (day 85): 3.7% | neutrophils (day 85): 22% | platelet count (day 85): 344000 µL⁻¹ | reticulocytes (day 85): 1.5% | MCHC (day 85): 30 g/dL | MCV (day 85): 77 fL | RBC count (day 85): 5.5e+06 µL⁻¹ | WBC count (day 85): 12000 µL⁻¹ | hematocrit (day 85): 42% | hemoglobin (day 85): 12.4 g/dL | basophils (day −5): 0.3% | eosinophils (day −5): 0.6% | lymphocytes (day −5): 59% | monocytes (day −5): 3.6% | neutrophils (day −5): 35% | platelet count (day −5): 425000 µL⁻¹ | reticulocytes (day −5): 0.9% | MCH (day −5): 23 pg | MCHC (day −5): 31 g/dL | MCV (day −5): 76 fL | RBC count (day −5): 5.6e+06 µL⁻¹ | WBC count (day −5): 12000 µL⁻¹ | hematocrit (day −5): 42% | hemoglobin (day −5): 13.1 g/dL | basophils (day −14): 0.2% | eosinophils (day −14): 0.6% | lymphocytes (day −14): 59% | monocytes (day −14): 3.1% | neutrophils (day −14): 36% | platelet count (day −14): 377000 µL⁻¹ | reticulocytes (day −14): 1.0% | MCH (day −14): 23 pg | MCHC (day −14): 30 g/dL | MCV (day −14): 77 fL | RBC count (day −14): 5.6e+06 µL⁻¹ | WBC count (day −14): 12000 µL⁻¹ | hematocrit (day −14): 42% | hemoglobin (day −14): 12.9 g/dL
